How the values were obtained:
Test in all cases: KinaseProfiler kinase assay
Format in all cases: biochemical
[1] = biological target: MST3(h) (Homo sapiens, UniProt Q9Y6E0)
Summary of the method: (§1)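 Compounds were serially diluted from DMSO into 20 mM MOPS buffer with EDTA, Brij-35, glycerol, β-mercaptoethanol and 1 mg/mL BSA. Reactions started with MgATP/[γ-33P]ATP, ran 40 min at room temperature, and phosphorylation was measured by scintillation counting after filtermat capture.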

[2] = biological target: PrKX(h) (Homo sapiens, UniProt P51817)
Summary of the method: as §1

[3] = biological target: Lck(h) activated (Homo sapiens, UniProt P06239)
Summary of the method: as §1

[4] = biological target: SGK2(h) (Homo sapiens, UniProt Q9HBY8)
Summary of the method: as §1

[5] = biological target: JAK3(h) (Homo sapiens, UniProt P52333)
Summary of the method: as §1

[6] = biological target: LOK(h) (Homo sapiens, UniProt O94804)
LOK(h), sequence (O94804 whole entry): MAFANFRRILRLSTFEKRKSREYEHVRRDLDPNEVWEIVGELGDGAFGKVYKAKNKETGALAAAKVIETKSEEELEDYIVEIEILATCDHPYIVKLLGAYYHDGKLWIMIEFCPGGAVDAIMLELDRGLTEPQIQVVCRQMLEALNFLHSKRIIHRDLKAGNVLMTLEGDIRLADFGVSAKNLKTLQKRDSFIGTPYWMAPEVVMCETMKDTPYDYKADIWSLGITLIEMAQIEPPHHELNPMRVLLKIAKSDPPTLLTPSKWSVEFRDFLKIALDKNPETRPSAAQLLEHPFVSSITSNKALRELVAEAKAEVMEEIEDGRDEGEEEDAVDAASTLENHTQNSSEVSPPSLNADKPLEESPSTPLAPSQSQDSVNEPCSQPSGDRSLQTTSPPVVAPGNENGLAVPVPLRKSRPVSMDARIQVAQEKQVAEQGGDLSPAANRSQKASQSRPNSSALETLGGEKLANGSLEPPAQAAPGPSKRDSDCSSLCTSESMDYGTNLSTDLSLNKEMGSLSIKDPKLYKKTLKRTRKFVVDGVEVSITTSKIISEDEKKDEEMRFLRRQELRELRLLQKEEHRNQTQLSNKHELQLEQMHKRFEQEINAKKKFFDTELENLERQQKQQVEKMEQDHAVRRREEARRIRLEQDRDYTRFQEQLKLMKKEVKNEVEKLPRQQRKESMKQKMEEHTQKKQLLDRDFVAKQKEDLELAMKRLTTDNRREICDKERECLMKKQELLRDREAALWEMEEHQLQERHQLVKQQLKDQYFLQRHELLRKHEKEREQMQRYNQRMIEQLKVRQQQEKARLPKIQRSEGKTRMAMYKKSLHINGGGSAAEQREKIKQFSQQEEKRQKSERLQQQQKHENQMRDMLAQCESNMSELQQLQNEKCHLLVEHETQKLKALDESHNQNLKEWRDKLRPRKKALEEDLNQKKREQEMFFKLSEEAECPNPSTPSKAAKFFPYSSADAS
Summary of the method: as §1

[7] = biological target: PKCβII(h) (Homo sapiens, UniProt P05771)
Summary of the method: as §1

[8] = biological target: DMPK(h) (Homo sapiens, UniProt Q09013)
Summary of the method: as §1

[9] = biological target: TrkB(h) (Homo sapiens, UniProt Q16620)
Summary of the method: as §1

[10] = biological target: Ros(h) (Homo sapiens, UniProt P08922)
Summary of the method: as §1

[11] = biological target: CaMKIV(h) (Homo sapiens, UniProt Q16566)
Summary of the method: as §1

[12] = biological target: MAPKAP-K2(h) (Homo sapiens, UniProt P49137)
Summary of the method: as §1

[13] = biological target: cKit(D816V)(h) (Homo sapiens, UniProt P10721, D816V)
Summary of the method: as §1

[14] = biological target: Blk(m) (Mus musculus, UniProt P16277)
Summary of the method: as §1

[15] = biological target: HIPK1(h) (Homo sapiens, UniProt Q86Z02)
Summary of the method: as §1

[16] = biological target: Plk1(h) (Homo sapiens, UniProt P53350)
Plk1(h), sequence (P53350 whole entry): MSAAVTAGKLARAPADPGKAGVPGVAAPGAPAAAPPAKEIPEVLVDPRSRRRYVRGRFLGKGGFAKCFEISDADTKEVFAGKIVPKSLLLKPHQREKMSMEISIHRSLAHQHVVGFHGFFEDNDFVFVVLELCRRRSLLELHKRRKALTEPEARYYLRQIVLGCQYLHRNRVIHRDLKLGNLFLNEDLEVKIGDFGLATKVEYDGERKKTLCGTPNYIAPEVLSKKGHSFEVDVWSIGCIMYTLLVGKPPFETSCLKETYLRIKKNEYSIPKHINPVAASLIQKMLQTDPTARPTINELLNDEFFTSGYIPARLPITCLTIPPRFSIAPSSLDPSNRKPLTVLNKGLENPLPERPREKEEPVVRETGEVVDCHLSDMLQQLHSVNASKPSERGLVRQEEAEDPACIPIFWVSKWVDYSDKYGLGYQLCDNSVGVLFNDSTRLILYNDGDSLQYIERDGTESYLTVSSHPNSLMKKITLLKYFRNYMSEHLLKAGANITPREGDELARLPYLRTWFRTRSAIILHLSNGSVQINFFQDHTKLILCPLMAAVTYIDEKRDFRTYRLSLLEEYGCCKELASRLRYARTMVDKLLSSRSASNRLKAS
Summary of the method: as §1

[17] = biological target: PAR-1Bα(h) (Homo sapiens, UniProt Q7KZI7)
Summary of the method: as §1

[18] = biological target: LKB1(h) (Homo sapiens, UniProt Q15831)
Summary of the method: as §1

[19] = biological target: PhKγ2(h) (Homo sapiens, UniProt P15735)
Summary of the method: as §1

[20] = biological target: NEK6(h) (Homo sapiens, UniProt Q9HC98)
NEK6(h), sequence (Q9HC98 whole entry): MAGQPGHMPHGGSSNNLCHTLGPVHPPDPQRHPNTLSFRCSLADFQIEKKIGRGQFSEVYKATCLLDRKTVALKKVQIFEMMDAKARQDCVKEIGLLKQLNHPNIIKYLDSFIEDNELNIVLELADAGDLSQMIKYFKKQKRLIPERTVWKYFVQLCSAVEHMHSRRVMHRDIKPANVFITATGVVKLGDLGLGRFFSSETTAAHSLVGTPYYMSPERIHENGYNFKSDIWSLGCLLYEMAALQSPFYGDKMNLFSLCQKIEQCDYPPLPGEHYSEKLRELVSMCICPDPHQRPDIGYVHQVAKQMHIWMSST
Summary of the method: as §1

[21] = biological target: MuSK(h) (Homo sapiens, UniProt O15146)
Summary of the method: as §1

[22] = biological target: Fms(h) (Homo sapiens, UniProt P07333)
Summary of the method: as §1

[23] = biological target: PDGFRα(D842V)(h) (Homo sapiens, UniProt P16234, D842V)
Summary of the method: as §1

[24] = biological target: STK33(h) (Homo sapiens, UniProt Q9BYT3)
Summary of the method: as §1

[25] = biological target: Pim-1(h) (Homo sapiens, UniProt P11309)
Pim-1(h), sequence (P11309 whole entry): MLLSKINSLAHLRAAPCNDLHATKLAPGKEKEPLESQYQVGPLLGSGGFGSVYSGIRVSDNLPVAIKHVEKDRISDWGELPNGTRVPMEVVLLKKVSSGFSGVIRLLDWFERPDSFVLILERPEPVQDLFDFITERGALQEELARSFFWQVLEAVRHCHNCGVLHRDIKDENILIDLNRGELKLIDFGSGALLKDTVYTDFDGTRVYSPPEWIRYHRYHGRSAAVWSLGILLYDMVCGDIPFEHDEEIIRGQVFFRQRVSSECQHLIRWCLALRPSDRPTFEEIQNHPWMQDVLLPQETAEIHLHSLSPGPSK
Summary of the method: as §1

[26] = biological target: EphA1(h) (Homo sapiens, UniProt P21709)
EphA1(h), sequence (P21709 26-976): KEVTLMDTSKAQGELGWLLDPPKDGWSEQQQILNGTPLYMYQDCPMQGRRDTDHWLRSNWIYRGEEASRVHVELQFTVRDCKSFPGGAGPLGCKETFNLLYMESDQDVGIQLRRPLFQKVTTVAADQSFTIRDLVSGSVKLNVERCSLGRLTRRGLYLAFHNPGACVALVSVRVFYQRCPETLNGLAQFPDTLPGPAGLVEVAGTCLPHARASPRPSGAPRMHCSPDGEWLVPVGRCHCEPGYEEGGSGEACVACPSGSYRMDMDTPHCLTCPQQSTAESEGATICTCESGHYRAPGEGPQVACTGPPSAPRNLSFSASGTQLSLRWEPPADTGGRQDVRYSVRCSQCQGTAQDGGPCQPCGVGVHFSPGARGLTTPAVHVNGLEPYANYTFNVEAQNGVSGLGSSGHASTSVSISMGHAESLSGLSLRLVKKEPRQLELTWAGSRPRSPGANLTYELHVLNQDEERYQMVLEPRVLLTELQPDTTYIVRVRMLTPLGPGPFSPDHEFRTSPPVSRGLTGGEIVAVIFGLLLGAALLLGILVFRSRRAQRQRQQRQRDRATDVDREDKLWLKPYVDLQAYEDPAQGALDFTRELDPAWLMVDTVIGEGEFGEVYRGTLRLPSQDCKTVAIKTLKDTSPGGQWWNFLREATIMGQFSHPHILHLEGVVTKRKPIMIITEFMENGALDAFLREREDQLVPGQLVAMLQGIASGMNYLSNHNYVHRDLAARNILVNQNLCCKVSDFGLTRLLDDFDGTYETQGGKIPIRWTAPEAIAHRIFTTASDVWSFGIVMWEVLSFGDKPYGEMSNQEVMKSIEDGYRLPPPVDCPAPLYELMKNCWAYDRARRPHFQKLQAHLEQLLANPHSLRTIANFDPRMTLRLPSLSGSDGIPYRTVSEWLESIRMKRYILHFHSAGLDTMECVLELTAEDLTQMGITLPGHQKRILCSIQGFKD
Summary of the method: as §1

[27] = biological target: PI3 Kinase (p110α/p65α)(m) (Mus musculus, UniProt P42337)
Summary of the method: as §1

[28] = biological target: Pyk2(h) (Homo sapiens, UniProt Q14289)
Summary of the method: as §1

[29] = biological target: ZIPK(h) (Homo sapiens, UniProt O43293)
Summary of the method: as §1

[30] = biological target: EphB2(h) (Homo sapiens, UniProt P29323)
EphB2(h), sequence (P29323 19-1055): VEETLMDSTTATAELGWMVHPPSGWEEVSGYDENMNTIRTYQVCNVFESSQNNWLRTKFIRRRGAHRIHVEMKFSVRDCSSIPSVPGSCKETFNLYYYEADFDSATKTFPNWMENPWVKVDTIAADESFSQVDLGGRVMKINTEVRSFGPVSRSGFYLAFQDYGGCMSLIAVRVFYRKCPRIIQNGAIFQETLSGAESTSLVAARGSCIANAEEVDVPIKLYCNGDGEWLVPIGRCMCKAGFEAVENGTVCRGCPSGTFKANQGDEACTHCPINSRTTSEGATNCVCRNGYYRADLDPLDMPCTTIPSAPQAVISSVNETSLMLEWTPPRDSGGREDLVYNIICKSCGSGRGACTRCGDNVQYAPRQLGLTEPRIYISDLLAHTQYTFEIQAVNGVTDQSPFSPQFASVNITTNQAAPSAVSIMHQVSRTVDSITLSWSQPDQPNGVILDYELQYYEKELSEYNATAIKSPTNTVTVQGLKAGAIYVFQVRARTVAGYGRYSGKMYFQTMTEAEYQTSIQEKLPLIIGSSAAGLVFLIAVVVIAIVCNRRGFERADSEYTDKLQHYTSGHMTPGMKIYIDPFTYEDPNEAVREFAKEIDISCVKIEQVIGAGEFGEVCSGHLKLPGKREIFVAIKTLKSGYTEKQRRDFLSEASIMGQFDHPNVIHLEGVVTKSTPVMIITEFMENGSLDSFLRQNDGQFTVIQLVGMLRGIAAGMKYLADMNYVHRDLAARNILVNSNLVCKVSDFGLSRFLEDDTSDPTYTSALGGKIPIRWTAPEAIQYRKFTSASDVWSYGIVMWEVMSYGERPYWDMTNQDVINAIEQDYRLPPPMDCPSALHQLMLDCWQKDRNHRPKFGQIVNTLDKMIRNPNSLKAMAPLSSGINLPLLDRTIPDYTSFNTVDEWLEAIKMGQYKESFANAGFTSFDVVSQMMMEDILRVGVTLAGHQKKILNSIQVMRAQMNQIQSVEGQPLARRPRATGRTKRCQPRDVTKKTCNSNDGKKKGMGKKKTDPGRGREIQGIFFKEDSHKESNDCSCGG
Summary of the method: as §1

[31] = biological target: PKG1α(h) (Homo sapiens, UniProt Q13976)
PKG1α(h), sequence (Q13976 whole entry): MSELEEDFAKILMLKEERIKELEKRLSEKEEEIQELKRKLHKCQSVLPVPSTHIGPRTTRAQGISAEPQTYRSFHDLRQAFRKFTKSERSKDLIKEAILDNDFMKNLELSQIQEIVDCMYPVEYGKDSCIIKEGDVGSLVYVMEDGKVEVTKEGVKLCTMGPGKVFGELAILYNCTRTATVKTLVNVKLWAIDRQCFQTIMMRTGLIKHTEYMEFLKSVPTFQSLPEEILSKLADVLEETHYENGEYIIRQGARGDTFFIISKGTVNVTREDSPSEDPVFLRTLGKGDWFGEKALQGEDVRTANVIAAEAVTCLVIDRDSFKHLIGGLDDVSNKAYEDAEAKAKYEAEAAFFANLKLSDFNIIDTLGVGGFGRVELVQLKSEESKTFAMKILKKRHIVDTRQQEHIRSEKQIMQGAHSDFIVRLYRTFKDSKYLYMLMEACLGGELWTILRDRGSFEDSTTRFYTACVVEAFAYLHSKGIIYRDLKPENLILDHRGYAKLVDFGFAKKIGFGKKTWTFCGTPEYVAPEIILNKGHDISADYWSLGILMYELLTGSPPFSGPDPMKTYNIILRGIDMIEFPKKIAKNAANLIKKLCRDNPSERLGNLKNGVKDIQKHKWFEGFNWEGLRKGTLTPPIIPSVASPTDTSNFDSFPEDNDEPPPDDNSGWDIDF
Summary of the method: as §1

[32] = biological target: CDK1/cyclinB(h) (Homo sapiens, UniProt P06493)
Summary of the method: as §1

Row | SMILES | inhibition at 0.1 µM [1] | inhibition at 0.1 µM [2] | inhibition at 0.1 µM [3] | inhibition at 0.1 µM [4] | inhibition at 0.1 µM [5] | inhibition at 0.1 µM [6] | inhibition at 0.1 µM [7] | inhibition at 0.1 µM [8] | inhibition at 0.1 µM [9] | inhibition at 0.1 µM [10] | inhibition at 0.1 µM [11] | inhibition at 0.1 µM [12] | inhibition at 0.1 µM [13] | inhibition at 0.1 µM [14] | inhibition at 0.1 µM [15] | inhibition at 0.1 µM [16] | inhibition at 0.1 µM [17] | inhibition at 0.1 µM [18] | inhibition at 0.1 µM [19] | inhibition at 0.1 µM [20] | also measured
1 | Cc1cc2c(F)c(Oc3nc(Nc4cc(C5CC5)[nH]n4)cc(N4CCN(C)CC4)n3)ccc2[nH]1 [Compound 10] | 85% | 13% | 97% | -41% | 86% | 73% | 3% | -4% | 103% | 12% | -25% | -7% | 33% | 84% | -6% | -9% | 75% | 14% | 2% | -11% | inhibition at 0.1 µM [21]: 30%; inhibition at 0.1 µM [22]: 91%; inhibition at 0.1 µM [23]: 73%; inhibition at 0.1 µM [24]: 8%; inhibition at 0.1 µM [25]: -21%; inhibition at 0.1 µM [26]: 78%; inhibition at 0.1 µM [27]: -1%; inhibition at 0.1 µM [28]: 64%; inhibition at 0.1 µM [29]: 1%; inhibition at 0.1 µM [30]: 47%; inhibition at 0.1 µM [31]: -25%; inhibition at 0.1 µM [32]: 10%
2 | Cc1cc2c(F)c(Oc3nc(Nc4cc(C5CC5)[nH]n4)cc(N4CCNCC4)n3)ccc2[nH]1 [Compound 11, N-(5-cyclopropyl-1H-pyrazol-3-yl)-2-((4-fluoro-2-methyl-1H-indol-5-yl)oxy)-6-(piperazin-1-yl)pyrimidin-4-amine] | 80% | 35% | 100% | -12% | 86% | 86% | -3% | -16% | 100% | 71% | -1% | -10% | 38% | 93% | -12% | -10% | 66% | -1% | 13% | -11% | inhibition at 0.1 µM [21]: 20%; inhibition at 0.1 µM [22]: 95%; inhibition at 0.1 µM [23]: 70%; inhibition at 0.1 µM [24]: -4%; inhibition at 0.1 µM [25]: -9%; inhibition at 0.1 µM [26]: 92%; inhibition at 0.1 µM [27]: 2%; inhibition at 0.1 µM [28]: 63%; inhibition at 0.1 µM [29]: 7%; inhibition at 0.1 µM [30]: 76%; inhibition at 0.1 µM [31]: -5%; inhibition at 0.1 µM [32]: -1%
